# Test results taken from patent publication US3988453A, “Novel phenothiazines as neuroleptics” (Roussel-UCLAF, priority 1974, dated 1976).
# Structures can show the parent of a compound that is named as a salt. Where two headings read alike, the source gives them in different places.
# What was measured:
# [1] = acute toxicity; details: mouse, in vivo, Swiss mice, mortality at 72 hours
# Method: The acute toxicity of the product of Example 2 was determined on groups of 10 mice of the Swiss strain weighing about 20 g receiving increasing doses orally or intraperitoneally of the test product. The mortality was determined 72 hours after the product administration.
# [2] = system: stereotypes provoked by amphetamine; test: antagonism to stereotypes provoked by amphetamine; assay type: in vivo, rats; details: for % protection: rat
# Method: C. antagonism to stereotypes provoked by amphetamine
# This test with the product of Example 2 was effected on groups of 5 rats with the rats individually held in cages and after the rats received intraperitoneally or subcutaneously an aqueous suspension of the product at a dose of 10 mg/kg, each rat received intraperitoneally at different times a single injection of 8 mg/kg of dexamphetamine sulfate. The second injections were made 1 hour or 1,3 or 7 days after the first injection and the results were determined by the procedure of Halliwel et al [Brit. J. Pharmacol., Vol. 23 (1964), p. 330-350].
# [3] = system: vomitting provoked by apomorphine; test: antagonism against vomitting provoked by apomorphine; assay type: in vivo, dogs; details: dog
# Method: D. antagonism against vomitting provoked by apomorphine
# This test was effected on 3 dogs on whom the number of vomits provoked by a single subcutaneous injection of 0.1 mg/kg of apomorphine hydrochloride 8 days before this test. Each dog received subcutaneously an injection of an aqueous suspension of 0.3 mg/kg or 0.8 mg/kg of the product of Example 2 and an injection of 0.1 mg/kg of apomorphine hydrochloride 30 minutes, 7 days, 14 days, 21 days, 28 days, 35 days and 42 days thereafter.
# [4] = system: histamine hydrochloride lethality; test: antihistaminic activity (protection against lethal histamine dose); assay type: in vivo, guinea pigs; details: guinea pig, oral 10 mg/kg
# Method: E. antihistaminic Activity
# This test was effected on guinea pigs which received orally a single dose of 10 mg/kg of the test product and then a intraveinous injection of 0.8 mg/kg of histamine hydrochloride 1 hour or 24 hours thereafter. This histamine dose is the minimum lethal dose for 100% of the animals within about 3 minutes and after 10 minutes, any surviving animals were considered to be protected. Each product was rated to see if 50% of the animals were alive at this dose and the values of Table IV show at least 50% protected by + and less than 50% protected by 0.
# [5] = system: toxicity provoked by amphetamine; test: antagonism to toxicity provoked by amphetamine; assay type: in vivo, male mice; details: mouse, oral, read-out: ED50 (DE50), amphetaminic toxicity
# Method: B. antagonism to toxicity provoked by amphetamine
# This test was effect on groups of 10 male mice grouped in crystallizers with a 20 cm diameter and a 9 cm height closed with a grilled lid. Each mouse orally received a determined dose of the test product and at different times a single intraperitoneal dose of dexamphetamine sulfate. The injection was effected 1 hour, 24 hours or 2,3,4 or 7 days after the administration of the test compound and the mortality for each group was determined 24 hours after the injection. The ED50, the dose at which the toxicity of dexamphetamine sulphate was reduced by 50%, was determined and the results are reported in Table I.
# [6] = system: stereotypes provoked by apomorphine; test: antagonism to stereotypes provoked by apomorphine; assay type: in vivo, male rats; details: rat, oral, read-out: ED50 (DE50), apomorphine sterotypes
# Method: A. antagonism to stereotypes provoked by apomorphine
# This test was conducted on groups of 5 male rats in individual cages with the procedure of Janssen et al [Arzn. Forsch., Vol. 15 (1965), p. 104-117 and Vol. 17 (1967), p. 841-854]. Each rat orally received the test compound and then, at variable times, an intraveinous injection of 1.5 mg of apomorphine hydrochloride in the veins of the penis. The times of injection were 1 hour, 24 hours, 2 days, 3 days or 4 days after the test product administration and the rats were studied during 1 minute after 5,10 and 15 minutes after the injection and the stereotype movements of the jaws spheres were evaluated for their degree of intensity on a scale for 0 to 3 /Boissier et al, Therapie, Vol. 25 (1970), p. 939-949/. The ED50 was determined at the maximum of the effect for the time considered that is to say the dose reducing the symptoms by 50% in the treated animals as compared to control animals and the results are reported in Table I.
compound,measurement,setting,value
"FC(F)(F)c1ccc2c(c1)N(CCCN1CCC(c3c[nH]c4ccccc34)CC1)c1ccccc1S2 [Example 2, 4-(3'-indolyl)-1-[γ-(2""-trifluoromethyl-10""-phenothiazinyl)-propyl]-piperidine hydrochloride]",LD50 at 72 h,"[1]; ip, intraperitoneal",~300 mg/kg
same,LD50 at 72 h,[1]; oral,> 1600 mg/kg
same,antagonistic effect against the stereotypes provoked by amphetamine (in words),[2]; injected intraperitoneally or subcutaneously,important antagonistic effect of prolonged duration
same,% protection,"[2]; intraperitoneal 10 mg/kg, after 1 hour",39%
same,% protection,"[2]; intraperitoneal 10 mg/kg, after 1 day",77%
same,% protection,"[2]; intraperitoneal 10 mg/kg, after 3 days",68%
same,% protection,"[2]; intraperitoneal 10 mg/kg, after 7 days",61%
same,% protection,"[2]; subcutaneous 10 mg/kg, after 1 hour",17%
same,% protection,"[2]; subcutaneous 10 mg/kg, after 1 day",84%
same,% protection,"[2]; subcutaneous 10 mg/kg, after 3 days",60%
same,% protection,"[2]; subcutaneous 10 mg/kg, after 7 days",14%
same,"neuroleptic activity (Table III, in words)",[3]; subcutaneous,important prolonged neuroleptic activity
same,% of protection,"[3]; subcutaneous 0.3 mg/kg, after 30 min",24%
same,% of protection,"[3]; subcutaneous 0.3 mg/kg, after 7 d",86%
same,% of protection,"[3]; subcutaneous 0.3 mg/kg, after 14 d",57%
same,% of protection,"[3]; subcutaneous 0.3 mg/kg, after 21 d",29%
same,% of protection,"[3]; subcutaneous 0.3 mg/kg, after 28 d",10%
same,% of protection,"[3]; subcutaneous 0.8 mg/kg, after 30 min",0%
same,% of protection,"[3]; subcutaneous 0.8 mg/kg, after 7 d",100%
same,% of protection,"[3]; subcutaneous 0.8 mg/kg, after 14 d",95%
same,% of protection,"[3]; subcutaneous 0.8 mg/kg, after 21 d",84%
same,% of protection,"[3]; subcutaneous 0.8 mg/kg, after 28 d",79%
same,% of protection,"[3]; subcutaneous 0.8 mg/kg, after 35 d",42%
same,% of protection,"[3]; subcutaneous 0.8 mg/kg, after 42 d",21%
same,Protection against histamine,[4]; after 1 hour,+ (at least 50% protected)
same,Protection against histamine,[4]; after 24 hours,0 (less than 50% protected)
same,ED50,"[5]; 48 h, dexamphetamine 2 d after test product",< 10 mg/kg
same,ED50,"[5]; 72 h, dexamphetamine 3 d after test product",50 mg/kg
same,ED50,[5]; dexamphetamine 1 h after test product,< 10 mg/kg
same,ED50,[5]; dexamphetamine 24 h after test product,< 10 mg/kg
same,ED50,"[6]; 48 h, apomorphine 2 d after test product",18 mg/kg
same,ED50,"[6]; 72 h, apomorphine 3 d after test product",17 mg/kg
same,ED50,"[6]; 96 h, apomorphine 4 d after test product",33 mg/kg
same,ED50,[6]; apomorphine 1 h after test product,> 50 mg/kg
same,ED50,[6]; apomorphine 24 h after test product,< 10 mg/kg
